Values after ≈ are worked out from the molar mass of the structure shown.

This is an account of results in publication PMC9706565, “Covalently Conjugated NOD2/TLR7 Agonists Are Potent and Versatile Immune Potentiators” (Journal of Medicinal Chemistry, 2022).

The target in one data set is T1, TLR7 (Homo sapiens, UniProt Q9NYK1).
T1 construct: host or cells: HEK-Blue TLR7 (HEK293-derived)
T1 sequence (Q9NYK1 27-1049): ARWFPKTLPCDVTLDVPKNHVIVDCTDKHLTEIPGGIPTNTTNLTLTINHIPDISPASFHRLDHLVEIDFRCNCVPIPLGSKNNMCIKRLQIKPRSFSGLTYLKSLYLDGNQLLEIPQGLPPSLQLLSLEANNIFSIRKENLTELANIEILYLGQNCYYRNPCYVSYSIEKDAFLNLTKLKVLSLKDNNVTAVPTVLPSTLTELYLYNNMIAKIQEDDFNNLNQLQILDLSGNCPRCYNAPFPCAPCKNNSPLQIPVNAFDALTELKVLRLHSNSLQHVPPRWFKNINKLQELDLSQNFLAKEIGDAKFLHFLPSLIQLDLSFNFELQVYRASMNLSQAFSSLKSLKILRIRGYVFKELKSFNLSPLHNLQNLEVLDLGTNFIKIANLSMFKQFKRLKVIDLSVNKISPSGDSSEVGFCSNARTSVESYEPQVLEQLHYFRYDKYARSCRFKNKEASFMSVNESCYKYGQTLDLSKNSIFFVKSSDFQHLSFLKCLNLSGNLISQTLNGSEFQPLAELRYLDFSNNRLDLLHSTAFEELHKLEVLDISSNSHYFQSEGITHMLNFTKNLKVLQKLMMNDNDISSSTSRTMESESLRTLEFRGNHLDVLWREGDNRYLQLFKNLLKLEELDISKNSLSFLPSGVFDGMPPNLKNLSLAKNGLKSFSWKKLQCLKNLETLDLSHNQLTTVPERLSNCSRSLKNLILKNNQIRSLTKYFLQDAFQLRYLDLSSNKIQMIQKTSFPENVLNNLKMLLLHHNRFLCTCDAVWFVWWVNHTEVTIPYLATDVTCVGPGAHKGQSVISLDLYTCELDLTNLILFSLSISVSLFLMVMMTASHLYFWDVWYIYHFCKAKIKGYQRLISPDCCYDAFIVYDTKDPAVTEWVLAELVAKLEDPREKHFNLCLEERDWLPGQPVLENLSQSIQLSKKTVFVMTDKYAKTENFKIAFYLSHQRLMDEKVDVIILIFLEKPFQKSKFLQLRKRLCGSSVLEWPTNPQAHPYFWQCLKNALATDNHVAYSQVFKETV
Description: NF-κB transcriptional activity (SEAP reporter) in HEK-Blue TLR7 cells. It is filed as cell-based. Particulars: for EC50: HEK-Blue TLR7 cells, 18 h, eight concentrations 1 nM to 10 μM, NA, not active. The text has this: (§1) HEK-Blue NOD1 (Cat. code: hkb-hnod1), NOD2 (Cat. code: hkb-hnod2), and TLR7 (Cat. code: hkb-htlr7) cell lines (Invivogen, San Diego, CA) are derived from HEK293 cells by co-transfection of the hNOD1, hNOD2, or hTLR7 genes, respectively, and a nuclear factor-κB (NF-κB)-inducible secreted embryonic alkaline phosphatase (SEAP) reporter gene. Following activation of the respective receptors, the resulting NF-κB induces the production of SEAP, the levels of which can be quantified colorimetrically. […] All of the subsequent passages were cultured in medium additionally supplemented with 100 μg/mL Zeocin (Invivogen) and 30 μg/mL Blasticidin (Invivogen) for HEK-Blue NOD1 and NOD2 cells, or with 100 μg/mL Zeocin (Invivogen) and 10 μg/mL Blasticidin (Invivogen) for HEK-Blue TLR7 cells.
(§2) After 18 h of incubation (37 °C, 5% CO2), SEAP activity was determined spectrophotometrically as absorbance at 630 nm (BioTek Synergy microplate reader; Winooski, VT). EC50 values were calculated using the Prism software (version 9; GraphPad Software, CA).

A further data set has as its system human PBMCs. Description: Cytokine release from peripheral blood mononuclear cells. It counts as cell-based. Conditions: 1 μM, 18 h.
Another data set has as its target T2, NOD2 (Homo sapiens, UniProt Q9HC29).
T2 construct: host or cells: HEK-Blue NOD2 (HEK293-derived)
As to the kind of experiment: NF-κB transcriptional activity (SEAP reporter) in HEK-Blue NOD2 cells. It is filed as cell-based. Conditions: 18 h, eight concentrations 1 nM to 10 μM, NA, not active.
Text: as §1, §2

The subject of another data set is RAW-Blue cells. Description: NF-κB transcriptional activity in RAW-Blue cells with or without NOD2/TLR7 antagonists. It counts as cell-based, murine. Conditions: 1 μM, 18 h; SG84 (5 μM), M5049 (1 μM). As to the method:
After the first two passages, 200 μg/mL Zeocin (Invivogen) was added to the medium every other passage, to maintain the selection pressure.
RAW-Blue cells were seeded (100,000 cells/well) in duplicate in 96-well plates in 200 μL of growth medium (without Normocin and Zeocin) and pretreated with a NOD2 antagonist SG84 (5 μM),[35] TLR7 antagonist M5049 (1 μM),[36] or both for 1 h, before the addition of compounds (1 μM) or the corresponding vehicle (0.1% DMSO). After 18 h of incubation (37 °C, 5% CO2), 10 μL of the induced supernatant was added to 90 μL of QUANTI-Blue solution (Invivogen). After 2 h of incubation (37 °C), SEAP activity was determined spectrophotometrically as absorbance at 630 nm (BioTek Synergy microplate reader; Winooski, VT). Statistical significance was determined with two-way ANOVA with subsequent Dunnett’s multiple comparisons test.

The subject of another data set is K562 cells. Description: PBMC cytotoxicity against K562 cancer cells. It counts as cell-based. As to the method: (§3) K562 cells are a chronic myelogenous leukemia cell line (Cat. code: CCL-243; ATCC, Manassas, VA)[60] and MEC1 cells are a B-chronic lymphocytic leukemia cell line (Cat. code: ACC 497; DSMZ GmbH, Braunschweig, Germany).[61]
(§4) The PBMC cytotoxicity assays using K562 and MEC1 cells were performed as described previously, with some modifications.[64] PBMCs were seeded (4 × 10^5 cells/well) in duplicate in 96-well U-bottom plates and treated with the compounds (1 nM–1 μM) or vehicle (0.1% DMSO) for 18 h. […] Cells that were positive for both CFSE and Sytox blue were defined as dead K562 and MEC1 cells. The gating strategy is described in Figure S4. PBMCs alone and CFSE-labeled cancer cells alone were also treated with the compounds at the same concentrations and stained with Sytox blue to exclude any direct cytotoxicity of the compounds toward the PBMCs and cancer cells. Statistical significance was determined with one-way ANOVA with subsequent Bonferroni’s multiple comparisons test.

A further data set relates to MEC1 cells. Description: PBMC cytotoxicity against MEC1 cancer cells. It is filed as cell-based, human. Particulars: PBMCs stimulated 18 h, 1 μM; 4 h coincubation, effector:target 40:1. The method, then: as §3, §4
The nature of data set [1]: Kinetic solubility measurement. It is filed as physicochemical. Particulars: phosphate-buffered saline, aqueous buffer, kinetic from dmso stock; kinetic, PBS pH 7.4, 2% DMSO, 2 h room temperature.
Description: The content of DMSO in all solutions was fixed to 2% by adding the respective amounts of DMSO. The column used was Waters Acquity UPLC BEH C18 (1.7 μm, 2.1 × 50 mm^2). […] The column was thermostated at 40 °C.

T2 sequence (Q9HC29 whole entry): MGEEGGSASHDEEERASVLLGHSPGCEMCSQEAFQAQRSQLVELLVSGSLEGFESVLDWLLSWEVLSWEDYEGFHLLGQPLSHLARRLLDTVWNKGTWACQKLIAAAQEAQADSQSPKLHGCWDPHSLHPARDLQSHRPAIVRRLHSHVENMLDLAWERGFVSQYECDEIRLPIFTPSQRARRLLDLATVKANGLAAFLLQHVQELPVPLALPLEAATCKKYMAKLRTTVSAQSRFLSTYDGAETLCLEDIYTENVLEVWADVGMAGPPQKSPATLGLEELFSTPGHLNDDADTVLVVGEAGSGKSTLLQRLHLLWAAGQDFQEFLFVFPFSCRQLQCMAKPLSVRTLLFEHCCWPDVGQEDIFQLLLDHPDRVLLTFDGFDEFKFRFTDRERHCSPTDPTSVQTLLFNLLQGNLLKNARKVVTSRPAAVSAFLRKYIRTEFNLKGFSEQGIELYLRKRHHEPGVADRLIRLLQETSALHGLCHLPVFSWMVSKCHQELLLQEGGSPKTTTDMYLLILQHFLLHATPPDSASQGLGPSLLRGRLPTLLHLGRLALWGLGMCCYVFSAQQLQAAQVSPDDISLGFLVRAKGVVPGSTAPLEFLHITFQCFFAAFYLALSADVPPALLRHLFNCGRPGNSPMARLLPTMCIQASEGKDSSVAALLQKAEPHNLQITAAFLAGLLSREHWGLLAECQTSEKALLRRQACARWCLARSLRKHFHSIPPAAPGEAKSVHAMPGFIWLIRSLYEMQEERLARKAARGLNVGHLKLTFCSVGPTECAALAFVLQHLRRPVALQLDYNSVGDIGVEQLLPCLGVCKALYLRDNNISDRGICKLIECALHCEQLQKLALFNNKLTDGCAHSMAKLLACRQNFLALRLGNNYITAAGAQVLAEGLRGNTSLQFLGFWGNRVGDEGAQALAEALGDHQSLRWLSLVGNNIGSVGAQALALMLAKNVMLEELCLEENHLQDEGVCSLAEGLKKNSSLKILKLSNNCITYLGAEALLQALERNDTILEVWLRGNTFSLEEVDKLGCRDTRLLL
Description for human PBMCs: Human PBMCs from healthy and consenting donors were isolated from heparinized blood by density gradient centrifugation using Ficoll-Paque (Pharmacia, Sweden).
Peripheral blood mononuclear cells were seeded (1 × 10^6 cells/mL) in 24-well plates in 500 μL of growth medium and treated with the compounds (1 μM), lipopolysaccharide (LPS; 1 μg/mL), or the corresponding vehicle (0.1% DMSO). Cell-free supernatants were collected after 18 h of incubation (37 °C, 5% CO2) and stored at −80 °C until tested. Cytokine production was determined with BD Cytometric Bead Array human inflammatory cytokines kit (BD Bioscience) on an Attune NxT flow cytometer (Thermo Fisher Scientific, Waltham, MA). Standard curves were generated using recombinant cytokines contained in the kit. The data were analyzed using the FlowJo (Tree Star, Inc., Ashland, OR) and Prism (GraphPad, San Diego, CA) software. Statistical significance was determined with one-way ANOVA with subsequent Bonferroni’s multiple comparisons test.

In the case of `CCCCOc1nc(N)c2nc(O)n(Cc3ccc(C(=O)O)cc3)c2n1` [Compound 1, 4-((6-Amino-2-butoxy-8-hydroxy-9H-purin-9-yl)methyl)benzoic acid, reference compound], the EC50 at TLR7 is 398 nM.
Consider `CCOC(=O)CC[C@@H](NC(=O)[C@@H](NC(=O)CNC(=O)/C=C/c1ccc(O)c(OC)c1)C(C)C)C(=O)OCC` [Compound 2, Diethyl ((E)-3-(4-hydroxy-3-methoxyphenyl)acryloyl)glycyl-L-valyl-D-glutamate], for which the IL-8 production result in the data set on human PBMCs is listed as “significant increase”.
Take `CCCCOc1nc(N)c2nc(O)n(Cc3ccc(C(=O)NCCCCCC(=O)Oc4ccc(/C=C/C(=O)NCC(=O)N[C@H](C(=O)N[C@H](CCC(=O)OCC)C(=O)OCC)C(C)C)cc4OC)cc3)c2n1` [Compound 3, Diethyl ((E)-3-(4-((6-(4-((6-amino-2-butoxy-8-hydroxy-9H-purin-9-yl)methyl)benzamido)hexanoyl)-oxy)-3-methoxyphenyl)acryloyl)glycyl-L-valyl-D-glutamate]: the 50% effective concentration (EC50) at NOD2 came to 114 nM; on TLR7, 161 nM. For the same compound, the “fold improved TLR7 activity over 1” value at TLR7 (ratio of EC50 values in HEK-Blue TLR7 cells) is “approximately 2 fold”. Besides, the “RAW-Blue activity in the presence of NOD2 or TLR7 antagonist” value with RAW-Blue cells was “decrease in activity after antagonizing TLR7 was more prominent”. The “cytolytic activity of PBMCs against K562 cells” value in the data set on K562 cells (PBMCs stimulated 18 h, 1 μM, 4 h coincubation, effector:target 40:1) is listed as “significantly enhanced”. Moreover, in the data set on K562 cells (tested 1 nM-1 μM, cancer cell line not specified (K562 or MEC1, Figure S5)), the “concentration at which significant PBMC cytotoxicity was observed” value turned out to be 1000 nM. Further, the “cytolytic activity of PBMCs against MEC1 cells” value in the data set on MEC1 cells was “significantly enhanced”. In addition, in data set [1], the solubility at 2 h is 27.4 µM (≈ 27.1 µg/mL).
